According to publication PMC10198811 (The Pediatric infectious disease journal, 2023):
Converted amounts (≈) assume the structure as drawn. Like-named read-outs stand apart in the source and are kept apart here. One block for each compound: values may come before it. *1 amine or outer side, *2 acyl side, *3 side chain or, on linkers, in order; H or OH if unused. Where a SMILES comes first, the peptide text is derived from it. Bridges are numbered along the chain shown (N, C = ends). [ ]: non-standard residue; d: D form. The star is where a group is joined. hTyr(3S-OH,4S-OH,3'-OSO3H) = N[C@H](C(=O)O)[C@H](O)[C@@H](O)c1ccc(O)c(OS(=O)(=O)O)c1; Orn(4R-OH,5R-OH) = O=C([C@H](C[C@@H](O)[C@@H](O)N[*:3])N[*:1])[*:2]; Pro(3S-OH,4S-Me) = C[C@H]1CN[C@H](C(=O)O)[C@H]1O; X1 = CCCCCOc1ccc(-c2cc(-c3ccc(C(=O)*)cc3)no2)cc1; Gln(3R-OH) = NC(=O)C[C@@H](O)[C@H](N)C(=O)O; Hyp = O=C(O)[C@@H]1C[C@@H](O)CN1

Columns and labels:
F. solani isolate [1] = assay: Antifungal susceptibility testing; format: cell-based, F. solani complex; details: Fusarium solani
[2] = cited from earlier work
CYP2C19 = details: compared to ilaprazole and pantoprazole; cited from earlier work
F. solani isolate [3] = assay: In vitro synergy testing of the voriconazole and micafungin combination; format: cell-based, F. solani complex; details: tested at University of Texas Health Science Center in San Antonio
[4] = cited from earlier work; remark: listed apart in the source
Fusarium spp. = details: cited from earlier work

MIC (F. solani isolate [1]): 8 µg/mL (≈ 8.66 µM)
Compound: C[C@@H]1[C@H](O)[C@@H](C)/C=C/C=C/C=C/C=C/C=C/C=C/C=C/[C@H](O[C@@H]2O[C@H](C)[C@@H](O)[C@H](N)[C@@H]2O)C[C@@H]2O[C@](O)(C[C@@H](O)C[C@@H](O)[C@H](O)CC[C@@H](O)C[C@@H](O)CC(=O)O[C@H]1C)C[C@H](O)[C@H]2C(=O)O [amphotericin B]

Compound: CN/C(=N/CCSCc1nc[nH]c1C)NC#N [cimetidine]
Toxicity [2]: central nervous system effects and anti-androgenic side effects

Compound: COc1ccc2nc([S@@+]([O-])Cc3ncc(C)c(OC)c3C)[nH]c2c1 [esomeprazole]
CYP2C19 inhibitory effect (CYP2C19): more potent inhibitory effects

MIC (F. solani isolate [1]): > 16 µg/mL
Compound: C[C@@H](c1nc(-c2ccc(C#N)cc2)cs1)[C@](O)(Cn1cncn1)c1cc(F)ccc1F [isavuconazole]

Compound: Cc1c(OCC(F)(F)F)ccnc1C[S+]([O-])c1nc2ccccc2[nH]1 (stereo not shown) [lansoprazole]
CYP2C19 inhibitory effect (CYP2C19): more potent inhibitory effects

Compound: CCCCCOc1ccc(-c2cc(-c3ccc(C(=O)N[C@H]4C[C@@H](O)[C@@H](O)NC(=O)[C@@H]5[C@@H](O)[C@@H](C)CN5C(=O)[C@H]([C@H](O)CC(N)=O)NC(=O)[C@H]([C@H](O)[C@@H](O)c5ccc(O)c(OS(=O)(=O)O)c5)NC(=O)[C@@H]5C[C@@H](O)CN5C(=O)[C@H]([C@@H](C)O)NC4=O)cc3)no2)cc1 [micafungin] (X1-[Orn(4R-OH,5R-OH)]T[Hyp][hTyr(3S-OH,4S-OH,3'-OSO3H)][Gln(3R-OH)][Pro(3S-OH,4S-Me)]; lactam 1-C)
Synergy of combination (F. solani isolate [3]): did not reveal synergy

Compound: COc1ccc2[nH]c([S+]([O-])Cc3ncc(C)c(OC)c3C)nc2c1 (stereo not shown) [omeprazole]
Omeprazole AUC with voriconazole compared to absence of co-administration ([4]; voriconazole co-administration): 4 times higher
Omeprazole Cmax with voriconazole compared to absence of co-administration ([4]; voriconazole co-administration): 2 times higher
CYP2C19 inhibitory effect (CYP2C19): more potent inhibitory effects

MIC (F. solani isolate [1]): > 16 µg/mL
Compound: CC[C@@H]([C@H](C)O)n1ncn(-c2ccc(N3CCN(c4ccc(OC[C@@H]5CO[C@@](Cn6cncn6)(c6ccc(F)cc6F)C5)cc4)CC3)cc2)c1=O [posaconazole]

Compound: C[C@@H](c1ncncc1F)[C@](O)(Cn1cncn1)c1ccc(F)cc1F [voriconazole]
MIC50 (Fusarium spp.): 8 µg/mL (≈ 22.9 µM)
MIC (F. solani isolate [1]): 4 µg/mL (≈ 11.5 µM)
Increase of voriconazole AUC ([4]; healthy subjects, with cimetidine 400 mg PO q12h): 23%
Increase of voriconazole AUC ([4]; healthy volunteers, with omeprazole 40 mg PO q24h): 40%
Repeat imaging of metastatic sites of proven or suspected infection (F. solani complex; 6 months after initiation of voriconazole therapy): significant interval improvement or resolution of all metastatic sites
Voriconazole-related toxicity (e.g., hepatotoxicity, neurotoxicity) (F. solani complex; ~10.7 mg/kg/dose PO q8h for several months, troughs 4 to 6 mcg/mL): without any evidence of voriconazole-related toxicity
